Measured values as given in the supplement of paper PMC10307832.

Tests used:
Assay in all cases: relative viability (nuclei count vs DMSO), 5 days (fraction); higher = more cells survive
[1] = compound: COc1cccc2c1C(=O)c1c(O)c3c(c(O)c1C2=O)C[C@@](O)(C(=O)CO)C[C@@H]3O[C@H]1C[C@H](N)[C@H](O)[C@H](C)O1 [Doxorubicin] + COc1cc2c(Oc3ccc(NC(=O)C4(C(=O)Nc5ccc(F)cc5)CC4)cc3F)ccnc2cc1OCCCN1CCOCC1 [Foretinib] (partner 0.25 µM)
Method in brief: (§1)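 Values are medians from duplicate plates. Each reflects relative viability, defined as the nuclei count of treated wells over that of vehicle wells. Lung cancer cell lines in 1536-well plates were pin-tool dosed one day after seeding with one drug alone or with a fixed anchor-drug dose plus five library-drug doses (not always all listed) in √10 steps, then fixed, stained and imaged at 4× after 5 days.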

[2] = compound: COc1cccc2c1C(=O)c1c(O)c3c(c(O)c1C2=O)C[C@@](O)(C(=O)CO)C[C@@H]3O[C@H]1C[C@H](N)[C@H](O)[C@H](C)O1 [Doxorubicin] + CC(=O)Nc1cccc(-n2c(=O)n(C3CC3)c(=O)c3c(Nc4ccc(I)cc4F)n(C)c(=O)c(C)c32)c1 [Trametinib] (partner 0.02 µM)
Method in brief: as §1

[3] = compound: COC1=C(C=C(C=C1)C2=CC3=NC=CN3C(=N2)NC4=C(C=CC=N4)C(=O)N)OC [BAY61-3606] + Nc1nc2[nH]cc(CCc3ccc(C(=O)N[C@@H](CCC(=O)O)C(=O)O)cc3)c2c(=O)[nH]1 [Pemetrexed] (partner 0.2 µM)
Method in brief: as §1

[4] = compound: COc1cccc2c1C(=O)c1c(O)c3c(c(O)c1C2=O)C[C@@](O)(C(=O)CO)C[C@@H]3O[C@H]1C[C@H](N)[C@H](O)[C@H](C)O1 [Doxorubicin] + Nc1nc2[nH]cc(CCc3ccc(C(=O)N[C@@H](CCC(=O)O)C(=O)O)cc3)c2c(=O)[nH]1 [Pemetrexed] (partner 0.2 µM)
Method in brief: as §1

NCI-H2009
relative viability ([1]; first compound 0.001 µM): 1.13
relative viability ([1]; first compound 0.003162 µM): 1.18
relative viability ([1]; first compound 0.01 µM): 1.15
relative viability ([1]; first compound 0.03162 µM): 0.947
relative viability ([1]; first compound 0.1 µM): 0.946
relative viability ([2]; first compound 0.001 µM): 0.294
relative viability ([2]; first compound 0.003162 µM): 0.287
relative viability ([2]; first compound 0.01 µM): 0.268
relative viability ([2]; first compound 0.03162 µM): 0.171
relative viability ([2]; first compound 0.1 µM): 0.153
relative viability ([3]; first compound 0.02 µM): 1
relative viability ([3]; first compound 0.06325 µM): 1.01
relative viability ([3]; first compound 0.2 µM): 1.02
relative viability ([3]; first compound 0.6325 µM): 0.918
relative viability ([3]; first compound 2 µM): 0.91
relative viability ([4]; first compound 0.001 µM): 1.04
relative viability ([4]; first compound 0.003162 µM): 0.987
relative viability ([4]; first compound 0.01 µM): 1.01
relative viability ([4]; first compound 0.03162 µM): 0.788
relative viability ([4]; first compound 0.1 µM): 0.617

NCI-H520
relative viability ([1]; first compound 0.001 µM): 0.831
relative viability ([1]; first compound 0.003162 µM): 0.729
relative viability ([1]; first compound 0.01 µM): 0.619
relative viability ([1]; first compound 0.03162 µM): 0.673
relative viability ([1]; first compound 0.1 µM): 0.548
relative viability ([2]; first compound 0.001 µM): 0.706
relative viability ([2]; first compound 0.003162 µM): 0.739
relative viability ([2]; first compound 0.01 µM): 0.616
relative viability ([2]; first compound 0.03162 µM): 0.575
relative viability ([2]; first compound 0.1 µM): 0.536
relative viability ([3]; first compound 0.02 µM): 0.75
relative viability ([3]; first compound 0.06325 µM): 0.782
relative viability ([3]; first compound 0.2 µM): 0.768
relative viability ([3]; first compound 0.6325 µM): 0.684
relative viability ([3]; first compound 2 µM): 0.467
relative viability ([4]; first compound 0.001 µM): 0.789
relative viability ([4]; first compound 0.003162 µM): 0.728
relative viability ([4]; first compound 0.01 µM): 0.681
relative viability ([4]; first compound 0.03162 µM): 0.703
relative viability ([4]; first compound 0.1 µM): 0.604

SW 1573
relative viability ([1]; first compound 0.001 µM): 0.921
relative viability ([1]; first compound 0.003162 µM): 1.19
relative viability ([1]; first compound 0.01 µM): 0.829
relative viability ([1]; first compound 0.03162 µM): 0.451
relative viability ([1]; first compound 0.1 µM): 0.503
relative viability ([2]; first compound 0.001 µM): 0.463
relative viability ([2]; first compound 0.003162 µM): 0.589
relative viability ([2]; first compound 0.01 µM): 0.187
relative viability ([2]; first compound 0.03162 µM): 0.102
relative viability ([2]; first compound 0.1 µM): 0.067
relative viability ([3]; first compound 0.02 µM): 0.924
relative viability ([3]; first compound 0.06325 µM): 0.833
relative viability ([3]; first compound 0.2 µM): 0.804
relative viability ([3]; first compound 0.6325 µM): 0.916
relative viability ([3]; first compound 2 µM): 0.53
relative viability ([4]; first compound 0.001 µM): 0.869
relative viability ([4]; first compound 0.003162 µM): 0.807
relative viability ([4]; first compound 0.01 µM): 0.263
relative viability ([4]; first compound 0.03162 µM): 0.144
relative viability ([4]; first compound 0.1 µM): 0.105

NCI-H1563
relative viability ([1]; first compound 0.001 µM): 0.876
relative viability ([1]; first compound 0.003162 µM): 0.878
relative viability ([1]; first compound 0.01 µM): 0.728
relative viability ([1]; first compound 0.03162 µM): 0.58
relative viability ([1]; first compound 0.1 µM): 0.502
relative viability ([3]; first compound 0.02 µM): 0.894
relative viability ([3]; first compound 0.06325 µM): 0.745
relative viability ([3]; first compound 0.2 µM): 0.669
relative viability ([3]; first compound 0.6325 µM): 0.84
relative viability ([3]; first compound 2 µM): 0.712
relative viability ([4]; first compound 0.001 µM): 0.734
relative viability ([4]; first compound 0.003162 µM): 0.825
relative viability ([4]; first compound 0.01 µM): 0.838
relative viability ([4]; first compound 0.03162 µM): 0.777
relative viability ([4]; first compound 0.1 µM): 0.536

NCI-H1648
relative viability ([2]; first compound 0.001 µM): 0.474
relative viability ([2]; first compound 0.003162 µM): 0.429
relative viability ([2]; first compound 0.01 µM): 0.555
relative viability ([2]; first compound 0.03162 µM): 0.492
relative viability ([2]; first compound 0.1 µM): 0.541
relative viability ([3]; first compound 0.02 µM): 0.803
relative viability ([3]; first compound 0.06325 µM): 0.622
relative viability ([3]; first compound 0.2 µM): 0.79
relative viability ([3]; first compound 2 µM): 0.874
relative viability ([4]; first compound 0.001 µM): 0.756
relative viability ([4]; first compound 0.003162 µM): 0.746
relative viability ([4]; first compound 0.01 µM): 0.724
relative viability ([4]; first compound 0.03162 µM): 0.695
relative viability ([4]; first compound 0.1 µM): 0.632

NCI-H727
relative viability ([1]; first compound 0.001 µM): 0.894
relative viability ([1]; first compound 0.003162 µM): 1.22
relative viability ([1]; first compound 0.01 µM): 1.03
relative viability ([1]; first compound 0.03162 µM): 0.725
relative viability ([1]; first compound 0.1 µM): 1.05
relative viability ([2]; first compound 0.001 µM): 0.401
relative viability ([2]; first compound 0.003162 µM): 0.382
relative viability ([2]; first compound 0.03162 µM): 0.397
relative viability ([2]; first compound 0.1 µM): 0.382

A549
relative viability ([1]; first compound 0.001 µM): 0.911
relative viability ([1]; first compound 0.003162 µM): 1.1
relative viability ([1]; first compound 0.01 µM): 0.927
relative viability ([1]; first compound 0.03162 µM): 0.684
relative viability ([1]; first compound 0.1 µM): 0.29

NCI-H1299
relative viability ([1]; first compound 0.001 µM): 1.1
relative viability ([1]; first compound 0.003162 µM): 1.11
relative viability ([1]; first compound 0.01 µM): 1.1
relative viability ([1]; first compound 0.03162 µM): 1.16
relative viability ([1]; first compound 0.1 µM): 1.05

NCI-H522
relative viability ([2]; first compound 0.001 µM): 0.706
relative viability ([2]; first compound 0.003162 µM): 0.79
relative viability ([2]; first compound 0.01 µM): 0.76
relative viability ([2]; first compound 0.03162 µM): 0.708
relative viability ([2]; first compound 0.1 µM): 0.777
relative viability ([3]; first compound 0.02 µM): 1.15
relative viability ([3]; first compound 0.06325 µM): 0.966
relative viability ([3]; first compound 0.2 µM): 1.04
relative viability ([3]; first compound 0.6325 µM): 0.907
relative viability ([3]; first compound 2 µM): 0.817
relative viability ([4]; first compound 0.001 µM): 0.949
relative viability ([4]; first compound 0.003162 µM): 1.02
relative viability ([4]; first compound 0.01 µM): 1.16
relative viability ([4]; first compound 0.03162 µM): 0.844
relative viability ([4]; first compound 0.1 µM): 0.878

NCI-H1792
relative viability ([2]; first compound 0.001 µM): 0.393
relative viability ([2]; first compound 0.003162 µM): 0.556
relative viability ([2]; first compound 0.01 µM): 0.456
relative viability ([2]; first compound 0.03162 µM): 0.392
relative viability ([2]; first compound 0.1 µM): 0.422
relative viability ([3]; first compound 0.02 µM): 1.07
relative viability ([3]; first compound 0.06325 µM): 1.09
relative viability ([3]; first compound 0.2 µM): 0.852
relative viability ([3]; first compound 0.6325 µM): 0.771
relative viability ([3]; first compound 2 µM): 0.614
relative viability ([4]; first compound 0.001 µM): 0.43
relative viability ([4]; first compound 0.003162 µM): 0.889
relative viability ([4]; first compound 0.01 µM): 0.809
relative viability ([4]; first compound 0.03162 µM): 0.691
relative viability ([4]; first compound 0.1 µM): 0.466

IA-LM
relative viability ([1]; first compound 0.001 µM): 1.04
relative viability ([1]; first compound 0.003162 µM): 1.13
relative viability ([1]; first compound 0.01 µM): 1.2
relative viability ([1]; first compound 0.03162 µM): 1.1
relative viability ([1]; first compound 0.1 µM): 1.06
